Experimental data: US20230111310A1, “CARBOXYLIC ACID DERIVATIVE-SUBSTITUTED IMINO ARYL COMPOUND, PREPARATION METHOD THEREFOR, HERBICIDAL COMPOSITION AND USE THEREOF” (Qingdao Kingagroot Chemical Compound Co., Ltd., priority 2020, published 2023)

What was measured:
Test in all cases: Weeding effect in post-emergence stage
Assay type in all cases: in vivo
Details in all cases: fresh weight control rate level
Eleusine indica = tested on: Eleusine indica
In short: (§1)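 Pot-grown greenhouse plants sprayed at 2–3 leaf stage, 2 weeks after sowing, with compound in acetone/Tween 80 plus methyl oleate emulsifiable concentrate (1.5 liter/ha) at 500–7.5 g/ha. Growth control rated 3 weeks after treatment; mean of three replicates.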

Digitaria sanguinalis = tested on: Digitaria sanguinalis
In short: as §1

Setaria viridis = tested on: Setaria viridis
In short: as §1

Abutilon theophrasti = tested on: Abutilon theophrasti
In short: as §1

Alopecurus japonicus = tested on: Alopecurus japonicus
In short: as §1

Echinochloa crusgalli = tested on: Echinochloa crusgalli
In short: as §1

SMILES | Weeding effect in post-emergence stage, Eleusine indica (level) (Eleusine indica; Dose 15 g/ha) | Weeding effect in post-emergence stage, Digitaria sanguinalis (level) (Digitaria sanguinalis; Dose 15 g/ha) | Weeding effect in post-emergence stage, Setaria viridis (level) (Setaria viridis; Dose 15 g/ha) | Weeding effect in post-emergence stage, Abutilon theophrasti (level) (Abutilon theophrasti; Dose 15 g/ha) | Weeding effect in post-emergence stage, Alopecurus japonicus (level) (Alopecurus japonicus; Dose 15 g/ha) | Weeding effect in post-emergence stage, Echinochloa crusgalli (level) (Echinochloa crusgalli; Dose 15 g/ha) | also measured
C/C(=N\OC(=O)[C@@H](C)O/N=C/c1cc(-n2c(=O)cc(C(F)(F)F)n(C)c2=O)c(F)cc1Cl)C1CC1 [450(R)] | 5 (Level 5: growth control rate is above 85%) | 5 (Level 5: growth control rate is above 85%) | 5 (Level 5: growth control rate is above 85%) | 5 (Level 5: growth control rate is above 85%) | 5 (Level 5: growth control rate is above 85%) | 5 (Level 5: growth control rate is above 85%) | –
C/C(=N/C(=O)[C@@H](C)O/N=C/c1cc(-n2c(=O)cc(C(F)(F)F)n(C)c2=O)c(F)cc1Cl)c1ccccc1 [453(R)] | – | – | – | – | – | – | Weeding effect in post-emergence stage, Eleusine indica (level) (Eleusine indica; Dose 30 g/ha): 5 (Level 5: growth control rate is above 85%); Weeding effect in post-emergence stage, Digitaria sanguinalis (level) (Digitaria sanguinalis; Dose 30 g/ha): 5 (Level 5: growth control rate is above 85%); Weeding effect in post-emergence stage, Setaria viridis (level) (Setaria viridis; Dose 30 g/ha): 5 (Level 5: growth control rate is above 85%); Weeding effect in post-emergence stage, Abutilon theophrasti (level) (Abutilon theophrasti; Dose 30 g/ha): 5 (Level 5: growth control rate is above 85%); Weeding effect in post-emergence stage, Alopecurus japonicus (level) (Alopecurus japonicus; Dose 30 g/ha): 5 (Level 5: growth control rate is above 85%); Weeding effect in post-emergence stage, Echinochloa crusgalli (level) (Echinochloa crusgalli; Dose 30 g/ha): 5 (Level 5: growth control rate is above 85%)
C[C@@H](O/N=C/c1cc(-n2c(=O)cc(C(F)(F)F)n(C)c2=O)c(F)cc1Cl)C(=O)N1CCOCC1 [454(R)] | – | – | – | – | – | – | Weeding effect in post-emergence stage, Eleusine indica (level) (Eleusine indica; Dose 60 g/ha): 5 (Level 5: growth control rate is above 85%); Weeding effect in post-emergence stage, Digitaria sanguinalis (level) (Digitaria sanguinalis; Dose 60 g/ha): 5 (Level 5: growth control rate is above 85%); Weeding effect in post-emergence stage, Setaria viridis (level) (Setaria viridis; Dose 60 g/ha): 5 (Level 5: growth control rate is above 85%); Weeding effect in post-emergence stage, Abutilon theophrasti (level) (Abutilon theophrasti; Dose 60 g/ha): 5 (Level 5: growth control rate is above 85%); Weeding effect in post-emergence stage, Alopecurus japonicus (level) (Alopecurus japonicus; Dose 60 g/ha): 5 (Level 5: growth control rate is above 85%); Weeding effect in post-emergence stage, Echinochloa crusgalli (level) (Echinochloa crusgalli; Dose 60 g/ha): 5 (Level 5: growth control rate is above 85%)
COC(=O)[C@@H](CC(C)C)O/N=C/c1cc(-n2c(=O)cc(C(F)(F)F)n(C)c2=O)c(F)cc1Cl [455(R)] | 5 (Level 5: growth control rate is above 85%) | 5 (Level 5: growth control rate is above 85%) | 5 (Level 5: growth control rate is above 85%) | 5 (Level 5: growth control rate is above 85%) | 5 (Level 5: growth control rate is above 85%) | 5 (Level 5: growth control rate is above 85%) | –
COC(=O)[C@H](O/N=C/c1cc(-n2c(=O)cc(C(F)(F)F)n(C)c2=O)c(F)cc1Cl)C1CC1 [456(R)] | – | – | – | – | – | – | Weeding effect in post-emergence stage, Eleusine indica (level) (Eleusine indica; Dose 30 g/ha): 5 (Level 5: growth control rate is above 85%); Weeding effect in post-emergence stage, Digitaria sanguinalis (level) (Digitaria sanguinalis; Dose 30 g/ha): 5 (Level 5: growth control rate is above 85%); Weeding effect in post-emergence stage, Setaria viridis (level) (Setaria viridis; Dose 30 g/ha): 5 (Level 5: growth control rate is above 85%); Weeding effect in post-emergence stage, Abutilon theophrasti (level) (Abutilon theophrasti; Dose 30 g/ha): 5 (Level 5: growth control rate is above 85%); Weeding effect in post-emergence stage, Alopecurus japonicus (level) (Alopecurus japonicus; Dose 30 g/ha): 5 (Level 5: growth control rate is above 85%); Weeding effect in post-emergence stage, Echinochloa crusgalli (level) (Echinochloa crusgalli; Dose 30 g/ha): 5 (Level 5: growth control rate is above 85%)
COC(=O)[C@@H](CC1CC1)O/N=C/c1cc(-n2c(=O)cc(C(F)(F)F)n(C)c2=O)c(F)cc1Cl [462(R)] | 5 (Level 5: growth control rate is above 85%) | 5 (Level 5: growth control rate is above 85%) | 5 (Level 5: growth control rate is above 85%) | 5 (Level 5: growth control rate is above 85%) | 5 (Level 5: growth control rate is above 85%) | 5 (Level 5: growth control rate is above 85%) | –
COC(=O)[C@H](CF)O/N=C/c1cc(-n2c(=O)cc(C(F)(F)F)n(C)c2=O)c(F)cc1Cl [463(R)] | 5 (Level 5: growth control rate is above 85%) | 5 (Level 5: growth control rate is above 85%) | 5 (Level 5: growth control rate is above 85%) | 5 (Level 5: growth control rate is above 85%) | 5 (Level 5: growth control rate is above 85%) | 5 (Level 5: growth control rate is above 85%) | –
COC(=O)[C@@H](C)O/N=C/c1cc(-n2c(=O)c(C)c(C(F)(F)F)n(C)c2=O)c(F)cc1Cl [473(R)] | – | – | – | – | – | – | Weeding effect in post-emergence stage, Eleusine indica (level) (Eleusine indica; Dose 30 g/ha): 5 (Level 5: growth control rate is above 85%); Weeding effect in post-emergence stage, Digitaria sanguinalis (level) (Digitaria sanguinalis; Dose 30 g/ha): 5 (Level 5: growth control rate is above 85%); Weeding effect in post-emergence stage, Setaria viridis (level) (Setaria viridis; Dose 30 g/ha): 5 (Level 5: growth control rate is above 85%); Weeding effect in post-emergence stage, Abutilon theophrasti (level) (Abutilon theophrasti; Dose 30 g/ha): 5 (Level 5: growth control rate is above 85%); Weeding effect in post-emergence stage, Alopecurus japonicus (level) (Alopecurus japonicus; Dose 30 g/ha): 5 (Level 5: growth control rate is above 85%); Weeding effect in post-emergence stage, Echinochloa crusgalli (level) (Echinochloa crusgalli; Dose 30 g/ha): 5 (Level 5: growth control rate is above 85%)
C[C@@H](O/N=C/c1cc(-n2c(=O)cc(C(F)(F)F)n(C)c2=O)c(F)cc1Cl)C(=O)OCc1ccc(Cl)nc1 [495(R)] | 5 (Level 5: growth control rate is above 85%) | 5 (Level 5: growth control rate is above 85%) | 5 (Level 5: growth control rate is above 85%) | 5 (Level 5: growth control rate is above 85%) | 5 (Level 5: growth control rate is above 85%) | 5 (Level 5: growth control rate is above 85%) | –
C[C@@H](O/N=C/c1cc(-n2c(=O)cc(C(F)(F)F)n(C)c2=O)c(F)cc1Cl)C(=O)OCCC1OCCO1 [498(R)] | 5 (Level 5: growth control rate is above 85%) | 5 (Level 5: growth control rate is above 85%) | 5 (Level 5: growth control rate is above 85%) | 5 (Level 5: growth control rate is above 85%) | 5 (Level 5: growth control rate is above 85%) | 5 (Level 5: growth control rate is above 85%) | –
C[C@@H](O/N=C/c1cc(-n2c(=O)cc(C(F)(F)F)n(C)c2=O)c(F)cc1Cl)C(N)=O [499(R)] | 5 (Level 5: growth control rate is above 85%) | 5 (Level 5: growth control rate is above 85%) | 5 (Level 5: growth control rate is above 85%) | 5 (Level 5: growth control rate is above 85%) | 5 (Level 5: growth control rate is above 85%) | 5 (Level 5: growth control rate is above 85%) | –
C/C(Cl)=C/COC(=O)[C@@H](C)O/N=C/c1cc(-n2c(=O)cc(C(F)(F)F)n(C)c2=O)c(F)cc1Cl [500(R)] | 5 (Level 5: growth control rate is above 85%) | 5 (Level 5: growth control rate is above 85%) | 5 (Level 5: growth control rate is above 85%) | 5 (Level 5: growth control rate is above 85%) | 5 (Level 5: growth control rate is above 85%) | 5 (Level 5: growth control rate is above 85%) | –
C=C(Cl)COC(=O)[C@@H](C)O/N=C/c1cc(-n2c(=O)cc(C(F)(F)F)n(C)c2=O)c(F)cc1Cl [501(R)] | 5 (Level 5: growth control rate is above 85%) | 5 (Level 5: growth control rate is above 85%) | 5 (Level 5: growth control rate is above 85%) | 5 (Level 5: growth control rate is above 85%) | 5 (Level 5: growth control rate is above 85%) | 5 (Level 5: growth control rate is above 85%) | –
